Measured values from patent US7179823B1, “5-membered n-heterocyclic compounds with hypoglycemic and hypolipidemic activity” (Takeda Pharmaceutical Company Limited, priority 1999, dated 2007).
pEC50: −log10 of the molar value.

molecular target: T1, PPARγ-RXRα heterodimer (Homo sapiens, UniProt P37231); assay: PPARγ-RXRα heterodimer ligand activity (luciferase reporter, PPARγ:RXRα:4ERPP/CHO-K1 cells); type: cell-based; details: 48 hours, concentration for 50% of the maximum fold induction
T1 construct: expressed in transfected cells; host or cells: CHO-K1
T1 sequence (P37231 1-477 isoform P37231-2): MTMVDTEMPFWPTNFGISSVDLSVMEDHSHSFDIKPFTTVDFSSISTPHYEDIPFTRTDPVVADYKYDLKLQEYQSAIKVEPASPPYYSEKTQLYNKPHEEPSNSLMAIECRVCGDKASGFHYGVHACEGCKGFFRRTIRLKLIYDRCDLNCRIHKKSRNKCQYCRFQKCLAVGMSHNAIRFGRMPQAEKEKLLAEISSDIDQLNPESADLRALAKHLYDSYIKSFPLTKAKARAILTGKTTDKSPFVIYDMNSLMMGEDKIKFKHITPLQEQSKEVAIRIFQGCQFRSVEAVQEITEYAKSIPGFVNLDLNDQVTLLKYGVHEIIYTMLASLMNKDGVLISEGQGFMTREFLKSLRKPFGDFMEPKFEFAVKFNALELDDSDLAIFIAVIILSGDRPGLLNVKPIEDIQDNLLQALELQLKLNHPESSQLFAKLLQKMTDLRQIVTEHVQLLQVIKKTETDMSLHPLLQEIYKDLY
T1 sequence (P19793 1-462 partner): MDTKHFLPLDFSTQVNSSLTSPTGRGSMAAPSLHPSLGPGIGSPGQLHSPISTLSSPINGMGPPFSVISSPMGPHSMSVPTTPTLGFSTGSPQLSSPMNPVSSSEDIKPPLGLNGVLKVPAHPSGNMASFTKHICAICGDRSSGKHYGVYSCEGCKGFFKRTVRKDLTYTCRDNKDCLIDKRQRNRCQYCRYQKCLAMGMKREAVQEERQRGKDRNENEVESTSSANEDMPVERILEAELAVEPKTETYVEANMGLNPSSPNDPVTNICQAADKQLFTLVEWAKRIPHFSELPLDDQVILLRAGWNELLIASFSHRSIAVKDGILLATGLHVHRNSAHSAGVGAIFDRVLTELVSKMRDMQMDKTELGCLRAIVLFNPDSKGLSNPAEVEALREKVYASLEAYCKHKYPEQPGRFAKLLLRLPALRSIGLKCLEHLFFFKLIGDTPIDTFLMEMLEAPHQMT
Protocol: (PPARγ-RXRα Heterodimer Ligand Activity)
A PPARγ:RXRα:4ERPP/CHO-K1 cells obtained in Reference Example 5 described later were cultured in HAM F12 medium (produced by NISSUI SEIYAKU) containing 10% Fetal bovine serum (produced by Life Technologies, Inc., USA) and then inoculated to a 96-well white plate (produced by Corning Costar Corporation, USA) at the density of 2×10^4 cells/well, and cultured in a CO2 gas incubator at 37° C. overnight.
After washing the 96 well white plate with PBS (Phosphate-buffered saline), 90 μl of HAM F12 medium containing 0.1% fatty acid-free bovine serum albumin (BSA) and 10 μl of test compound were added, which was cultured in a CO2 gas incubator at 37° C. for 48 hours. After removing the medium, 40 μl of PIKKAGENE 7.5 (produced by Wako Pure Chemical Industries, Ltd.) was added. After stirring, the luciferase activity was determined using Lumistar (produced by BMG Labtechnologies GmbH, Germany).
A fold induction was calculated based on the luciferase activity of each test compound by taking the luciferase activity in the non-treatment group as 1. The values of the test compound concentration and the fold induction were analyzed using PRISM 2.01 (produced by GraphPad Software Inc. USA) to calculate the EC50 values, the effective concentration of a test compound for 50% of the maximum fold induction.
(Introduction of Human PPARγ- and RXRα-Expressing Plasmid and Reporter Plasmid into CHO-K1 Cell and Establishment of Expressed Cell)
After a CHO-K1 cell cultured in a 750 ml tissue culture flask (produced by Corning Costar Corporation, USA) containing HAM F12 medium (produced by NISSUI SEIYAKU) supplemented with 10% Fetal Bovine Serum (produced by Life Technologies, Inc., USA) was scraped by treating with 0.5 g/L trypsin-0.2 g/L EDTA (ethylenediaminetetraacetic acid) (produced by Life Technologies, Inc., USA), the cell was washed with PBS (phosphate-buffered saline) (produced by Life Technologies, Inc., USA), centrifuged (1000 rpm, 5 minutes), and then suspended in PBS. Subsequently, a DNA was introduced into the cell under the condition shown below using GENE PULSER (produced by Bio-Rad Laboratories, USA).
Namely, to a cuvette having a 0.4 cm gap, added were 8×10^6 cells and 10 μg of plasmid pVgRXR2-hPPAR γ obtained in Reference Example 3 and 10 μg of reporter plasmid pGL3-4ERPP-TK neo obtained in Reference Example 4, which was subjected to electroporation at the voltage of 0.25 kV under the capacitance of 960 μF. Subsequently, the cell was transferred into a HAM F12 medium containing 10% Fetal Bovine Serum and cultured for 24 hours and then the cell was scraped again and centrifuged, and then suspended in HAM F12 medium containing 10% Fetal Bovine Serum supplemented with 500 μg/ml of GENETICIN (produced by Life Technologies, Inc., USA) and 250 μg/ml of ZEOCIN (produced by Invitrogen, USA) and diluted to the density of 10^4 cells/ml upon inoculation to a 96-well plate (produced by Corning Costar Corporation, USA), which was cultured in a CO2 gas incubator at 37° C., whereby obtaining a GENETICIN- and ZEOCIN-resistant transformant.
Subsequently, after the transformant cell line thus obtained was cultured in a 24-well plate (produced by Corning Costar Corporation, USA), selected was a cell line in which the luciferase was expressed and induced, i.e., PPARγ:RXRα:4ERPP/CHO-K1 cell by addition of 10 μM pioglitazone hydrochloride.

**Q.** Cc1oc(-c2cccs2)nc1COc1ccc(Cn2cc(CCC(=O)O)c(-c3ccccc3)c2)cc1 [Example 9, 3-[1-[4-[5-methyl-2-(2-thienyl)-4-oxazolylmethoxy]benzyl]-4-phenyl-3-pyrrolyl]propionic acid] was tested. Which pEC50 did it give?
**A.** 8.82

**Q.** With O=C(O)CCc1cn(Cc2ccc(OCc3cccnc3)cc2)cc1-c1ccccc1 [Example 12, 3-[4-phenyl-1-[4-(3-pyridylmethoxy)benzyl]-3-pyrrolyl]propionic acid] as the compound, how does the pEC50 read?
**A.** 6.49

**Q.** How did the pEC50 turn out when O=C(O)CCc1cn(Cc2ccc(OCc3csc(-c4ccccc4)n3)cc2)cc1-c1ccccc1 [Example 30, 3-[4-phenyl-1-[4-(2-phenyl-4-thiazolylmethoxy)benzyl]-3-pyrrolyl]propionic acid] was run?
**A.** 8.01

**Q.** How did the pEC50 turn out when O=C(O)CCc1cn(Cc2ccc(OCc3csc(-c4ccco4)n3)cc2)cc1-c1ccccc1 [Example 38, 3-[1-[4-[2-(2-furyl)-4-thiazolylmethoxy]benzyl]-4-phenyl-3-pyrrolyl]propionic acid] was run?
**A.** 7.42

**Q.** O=C(O)CCc1cn(Cc2ccc(OCc3csc(-c4cccs4)n3)cc2)cc1-c1ccccc1 [Example 40, 3-[4-phenyl-1-[4-[2-(2-thienyl)-4-thiazolylmethoxy]benzyl]-3-pyrrolyl]propionic acid] was tested. Which pEC50 did it give?
**A.** 7.24

**Q.** O=C(O)CCc1cn(Cc2ccc(OCc3coc(-c4ccccc4)n3)cc2)cc1-c1ccccc1 [Example 44, 3-[4-phenyl-1-[4-(2-phenyl-4-oxazolylmethoxy]benzyl]-3-pyrrolyl]propionic acid] was tested. Which pEC50 did it give?
**A.** 7.89

**Q.** With Cc1oc(-c2ccccc2)nc1COc1ccc(Cn2cc(CCC(=O)O)c(-c3ccccc3)n2)cc1 [Example 89, 3-[1-[4-(5-methyl-2-phenyl-4-oxazolylmethoxy)benzyl]-3-phenyl-1H-pyrazol-4-yl]propionic acid] as the compound, how does the pEC50 read?
**A.** 9.64

**Q.** With CCOc1nn(Cc2ccc(OCc3nc(-c4ccccc4)oc3C)nc2)cc1CC(=O)O [Example 262, 3-ethoxy-1-[6-(5-methyl-2-phenyl-4-oxazolylmethoxy)-3-pyridylmethyl]-1H-pyrazol-4-ylacetic acid] as the compound, how does the pEC50 read?
**A.** 7.48

**Q.** With Cc1oc(-c2ccccc2)nc1COc1ccc(Cn2cc(CCC(=O)O)c(-c3ccccc3)n2)cn1 [Example 283, 3-[1-[2-(5-methyl-2-phenyl-4-oxazolylmethoxy)-5-pyridylmethyl]-3-phenyl-1H-pyrazol-4-yl]propionic acid] as the compound, how does the pEC50 read?
**A.** 9.66
